As usually defined, the IC50 is the point on the concentration scale where inhibition reaches its midpoint.

Molecules are shown by their SMILES. Bounds are passed on as bounds.

This note sets out measurements from patent US12612410B2 (CHILDREN'S HOSPITAL MEDICAL CENTER, priority 2020, dated 2026).

Experiment [1] has as its system MOLM14 F691L cells. Kind of experiment: MOLM14 F691L cell viability assay (Cell Titer Glo). The format is cell-based. The protocol:
(§1) Both cell lines have activated FLT3 receptors, each of which carry additional resistance mutations in the kinase domain (D835Y and F691L, respectively).
(§2) MOLM14 D835Y and MOLM14 F691L cells were grown in RPMI-1640 media supplemented with 20% fetal bovine serum (FBS). For viability/cytotoxicity assessments, cells were seeded into 1536-well white polystyrene tissue culture-treated Greiner plates using a Multidrop Combi dispenser (ThermoFisher), in final volume 5 μL of growth media per well, at a density of 1000 cells per well. After cell addition, 23 nL of test compound were transferred into individual wells (22 doses tested for each test compound, with a 1:2 dilution series starting at 10 μM) via a 1536 pin-tool. Bortezomib (final concentration 2.3 μM) was used as a positive control for cell cytotoxicity. Plates were incubated for 48 hours at standard incubator conditions covered by a stainless steel gasketed lid to prevent evaporation. 48 hours post compound addition, 3 μL of Cell Titer Glo (Promega) were added to each well and plates were incubated at room temperature for 15 minutes with the stainless-steel lid in place. Luminescence readings were taken using a Viewlux imager (PerkinElmer) with a 2 second exposure time per plate.
Background: ATP-based viability assays read luminescence as a measure of living cells.

Experiment [2] has as its target T1, FLT3 (Homo sapiens, UniProt P36888).
T1 sequence (P36888 27-993): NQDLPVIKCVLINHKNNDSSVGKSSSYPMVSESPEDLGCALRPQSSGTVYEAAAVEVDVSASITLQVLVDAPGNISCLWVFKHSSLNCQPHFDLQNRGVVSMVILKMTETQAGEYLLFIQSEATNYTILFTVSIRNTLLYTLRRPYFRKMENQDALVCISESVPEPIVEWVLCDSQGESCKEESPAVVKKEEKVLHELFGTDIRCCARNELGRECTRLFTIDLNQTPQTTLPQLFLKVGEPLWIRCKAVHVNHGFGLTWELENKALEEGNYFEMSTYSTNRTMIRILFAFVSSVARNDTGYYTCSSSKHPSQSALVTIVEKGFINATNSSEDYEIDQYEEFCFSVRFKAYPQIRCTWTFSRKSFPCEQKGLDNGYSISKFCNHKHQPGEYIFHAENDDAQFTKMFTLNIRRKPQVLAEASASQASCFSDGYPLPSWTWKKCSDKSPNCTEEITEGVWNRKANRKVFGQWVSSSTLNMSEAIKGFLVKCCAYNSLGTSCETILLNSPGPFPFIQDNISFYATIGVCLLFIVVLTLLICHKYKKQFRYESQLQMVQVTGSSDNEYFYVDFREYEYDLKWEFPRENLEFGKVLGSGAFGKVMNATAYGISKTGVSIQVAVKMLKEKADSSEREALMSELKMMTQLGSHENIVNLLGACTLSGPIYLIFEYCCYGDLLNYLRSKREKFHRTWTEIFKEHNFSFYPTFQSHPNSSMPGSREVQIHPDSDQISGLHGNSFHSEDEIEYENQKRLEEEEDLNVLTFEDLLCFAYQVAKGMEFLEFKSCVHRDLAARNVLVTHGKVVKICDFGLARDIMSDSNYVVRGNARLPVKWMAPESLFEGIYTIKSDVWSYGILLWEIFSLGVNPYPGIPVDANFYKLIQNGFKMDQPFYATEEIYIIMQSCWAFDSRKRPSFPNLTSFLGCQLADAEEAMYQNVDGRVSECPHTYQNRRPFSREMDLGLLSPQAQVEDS
Description: RBC HotSpot Kinase Assay, FLT3. The format is biochemical. Further details: purchased Reaction Biology (RBC), HotSpot kinase assay. The following applies: isolated kinase, 33P-ATP. An excerpt:
(§3) This assay uses the isolated kinase enzyme. This assay is very useful for determining competition of the inhibitor for ATP and/or substrates and for measuring the kinetics of enzyme inhibition. […] Unlike kinase binding assays that measure competition for ATP, the HotSpot Kinase Assay is a functional assay that measures catalytic activity; as such it measures relative functional potency regardless of the mechanism of enzyme inhibition. This assay uses the form of the various enzymes that are easiest to express, which may not necessarily be the form of the enzyme that exist in the cell. (Sometimes the carboxy terminus has been truncated to aid in expression, or, if it is a receptor kinase, the enzyme itself is isolated from the other parts of the receptor that are involved in regulating kinase activity.)
(§4) The reagent used was as follows: Base Reaction buffer; 20 mM Hepes (pH 7.5), 10 mM MgCl2, 1 mM EGTA, 0.01% Brij35, 0.02 mg/ml BSA, 0.1 mM Na3VO4, 2 mM DTT, 1% DMSO. Required cofactors were added individually to each kinase reaction.
(§5) The reaction procedure was as follows: • 1) Substrates were prepared in freshly prepared Reaction Buffer. • 2) Any required cofactors were delivered to the substrate solution above. • 3) Kinase was delivered into the substrate solution and gently mixed. • 4) Compounds were delivered in 100% DMSO into the kinase reaction mixture by Acoustic technology (Echo550; nanoliter range), followed by incubation for 20 min at room temp. • 5)^33P-ATP was delivered into the reaction mixture to initiate the reaction. • 6) The mixture was incubated for 2 hours at room temperature. • 7) Kinase activity was detected by P81 filter-binding method.

Experiment [3] has as its system MOLM14 D835Y cells. Kind of experiment: MOLM14 D835Y cell viability assay (Cell Titer Glo). The format is cell-based. The protocol:
as §1, §2

The target of experiment [4] is T2, IRAK4 (Homo sapiens, UniProt Q9NWZ3).
T2 sequence (Q9NWZ3 1-460): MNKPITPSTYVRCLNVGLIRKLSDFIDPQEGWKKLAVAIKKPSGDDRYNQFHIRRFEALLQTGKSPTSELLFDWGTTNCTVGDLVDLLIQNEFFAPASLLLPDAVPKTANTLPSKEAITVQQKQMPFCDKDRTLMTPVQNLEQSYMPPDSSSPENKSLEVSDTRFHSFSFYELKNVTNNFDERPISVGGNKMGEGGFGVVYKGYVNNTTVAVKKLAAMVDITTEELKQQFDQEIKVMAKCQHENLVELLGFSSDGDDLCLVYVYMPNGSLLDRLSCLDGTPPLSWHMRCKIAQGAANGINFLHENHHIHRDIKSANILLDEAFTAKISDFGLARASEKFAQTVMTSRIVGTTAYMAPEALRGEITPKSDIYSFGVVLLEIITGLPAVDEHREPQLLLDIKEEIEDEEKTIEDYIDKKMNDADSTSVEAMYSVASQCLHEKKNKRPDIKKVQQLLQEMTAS
Kind of experiment: RBC HotSpot Kinase Assay, IRAK4. The format is biochemical. Further details: purchased Reaction Biology (RBC), HotSpot kinase assay. The following applies: isolated kinase, 33P-ATP.
Source text: as §3, §4, §5

Experiment [5] has as its target T3, IRAK1 (Homo sapiens, UniProt P51617).
T3 construct: purchased Reaction Biology (RBC), HotSpot kinase assay
Description: RBC HotSpot Kinase Assay, IRAK1. The format is biochemical. The following applies: isolated kinase, 33P-ATP.
Source text: as §3, §4, §5

T3 sequence (P51617 whole entry): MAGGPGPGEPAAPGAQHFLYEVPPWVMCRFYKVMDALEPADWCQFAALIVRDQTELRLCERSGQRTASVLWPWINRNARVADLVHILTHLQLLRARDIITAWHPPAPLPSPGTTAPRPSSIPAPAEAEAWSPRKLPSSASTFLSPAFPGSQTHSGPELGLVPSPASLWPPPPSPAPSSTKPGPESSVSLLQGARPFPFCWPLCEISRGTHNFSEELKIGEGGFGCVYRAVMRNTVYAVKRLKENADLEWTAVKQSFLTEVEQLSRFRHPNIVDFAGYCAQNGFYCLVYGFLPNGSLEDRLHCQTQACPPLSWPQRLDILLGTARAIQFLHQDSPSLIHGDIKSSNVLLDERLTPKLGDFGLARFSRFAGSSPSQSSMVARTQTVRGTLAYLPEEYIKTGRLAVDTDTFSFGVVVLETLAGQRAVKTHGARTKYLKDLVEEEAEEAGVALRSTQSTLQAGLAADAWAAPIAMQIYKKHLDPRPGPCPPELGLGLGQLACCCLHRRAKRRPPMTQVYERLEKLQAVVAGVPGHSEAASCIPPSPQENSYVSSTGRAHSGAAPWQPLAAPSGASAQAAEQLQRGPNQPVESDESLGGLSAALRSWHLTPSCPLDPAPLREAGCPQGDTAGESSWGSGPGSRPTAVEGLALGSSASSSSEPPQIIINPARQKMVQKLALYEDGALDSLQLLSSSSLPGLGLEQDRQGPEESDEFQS

On to `CC(O)(c1cn2c(-c3cc(F)cc(N[C@H]4CNC[C@@H]4F)n3)cnc2cn1)C(F)(F)F` (single isomer, unassigned) [Compound 83], for which the concentration for half-maximal inhibition (IC50) in experiment [1] (Homo sapiens, MOLM-14, 48 h) is 486 nM; in experiment [2], under 0.5 nM; in experiment [3] (Homo sapiens, MOLM-14, 48 h), 344 nM; in experiment [4] it was 28 nM; in experiment [5], 329 nM.
Regarding `CC(O)(c1cn2c(-c3cc(F)cc(N[C@H]4CNC[C@@H]4F)n3)cnc2cn1)C(F)(F)F` (single isomer, unassigned) [Compound 84], the IC50 in experiment [1] (48 hours) was 410 nM; in experiment [2] it was 0.6 nM; in experiment [3] (48 hours), 183 nM; in experiment [4] it was 2 nM; in experiment [5], 114 nM.
As for `CC(O)(c1cn2c(-c3cc(F)cc(N[C@@H]4CCCNC4)n3)cnc2cn1)C(F)(F)F` (single isomer, unassigned) [Compound 85], the IC50 turned out to be 290 nM in experiment [1] (Homo sapiens, MOLM-14, 48 h); 0.6 nM in experiment [2]; 154 nM in experiment [3] (Homo sapiens, MOLM-14, 48 h); 54 nM in experiment [4]; 106 nM in experiment [5].
For `CC(O)(c1cn2c(-c3cc(F)cc(N[C@H]4CNCC[C@@H]4F)n3)cnc2cn1)C(F)(F)F` (single isomer, unassigned) [Compound 86], the IC50 in experiment [1] (Homo sapiens, MOLM-14, 48 h) amounted to 365 nM; in experiment [2], 0.9 nM; in experiment [3] (48 hours), 205 nM; in experiment [4] it was 65 nM; in experiment [5], 144 nM.
Regarding `CC(O)(c1cn2c(-c3cc(F)cc(N[C@@H]4CCCNC4)n3)cnc2cn1)C(F)(F)F` (single isomer, unassigned) [Compound 87], the IC50 came to 309 nM in experiment [1] (48 hours); 0.7 nM in experiment [2]; 116 nM in experiment [3] (48 hours); 5 nM in experiment [4]; 46 nM in experiment [5].
As for `CC(O)(c1cn2c(-c3cc(F)cc(N[C@H]4CNCC[C@@H]4F)n3)cnc2cn1)C(F)(F)F` (single isomer, unassigned) [Compound 88], the IC50 turned out to be 217 nM in experiment [1] (48 hours); 1 nM in experiment [2]; 97 nM in experiment [3] (48 hours); 15 nM in experiment [4]; 69 nM in experiment [5].
Turning to `CC(O)(c1cn2c(-c3nc(N[C@@H]4CCCNC4)c(F)cc3F)cnc2cn1)C(F)(F)F` (single isomer, unassigned) [Compound 89], the IC50 is 649 nM in experiment [1] (Homo sapiens, MOLM-14, 48 h); under 0.5 nM in experiment [2]; 41 nM in experiment [3] (48 hours); under 0.5 nM in experiment [4]; 9 nM in experiment [5].
In the case of `CC(O)(c1cn2c(-c3nc(N[C@@H]4CCCNC4)c(F)cc3F)cnc2cn1)C(F)(F)F` (single isomer, unassigned) [Compound 90], the IC50 came to 817 nM in experiment [1] (48 hours); 2 nM in experiment [2]; 96 nM in experiment [3] (48 hours); 7 nM in experiment [4]; 16 nM in experiment [5].
For `CC(O)(c1cn2c(-c3nc(N[C@H]4CNC[C@@H]4F)c(F)cc3F)cnc2cn1)C(F)(F)F` (single isomer, unassigned) [Compound 91], the IC50 in experiment [1] (Homo sapiens, MOLM-14, 48 h) is 1540 nM; in experiment [2], 3 nM; in experiment [3] (48 hours), 195 nM; in experiment [4] it was 2 nM; in experiment [5], 40 nM.
As to `CC(O)(c1cn2c(-c3nc(N[C@H]4CNCC[C@@H]4F)c(F)cc3F)cnc2cn1)C(F)(F)F` (single isomer, unassigned) [Compound 92], the IC50 in experiment [1] (Homo sapiens, MOLM-14, 48 h) came out at 969 nM; in experiment [2] it was 2 nM; in experiment [3] (Homo sapiens, MOLM-14, 48 h), 87 nM; in experiment [4] it was 2 nM; in experiment [5] it was 11 nM.
On to `CC(O)(c1cn2c(-c3nc(N[C@H]4CNC[C@@H]4F)c(F)cc3F)cnc2cn1)C(F)(F)F` (single isomer, unassigned) [Compound 93], for which the IC50 in experiment [1] (48 hours) is 969 nM; in experiment [2] it was 1 nM; in experiment [3] (48 hours), 73 nM; in experiment [4] it was under 0.5 nM; in experiment [5], 8 nM.
For `C[C@H]1CNC[C@@H]1Nc1cccc(-c2cnc3cnc(C4(C(F)(F)F)CC4)cn23)n1` [Compound 11, N-((3R,4S)-4-methylpyrrolidin-3-yl)-6-(6-(1-(trifluoromethyl)cyclopropyl)imidazo[1,2-a]pyrazin-3-yl)pyridin-2-amine], the IC50 was under 0.5 nM in experiment [2]; 15 nM in experiment [3] (Homo sapiens, MOLM-14, 48 h); 3 nM in experiment [4]; 301 nM in experiment [5].
The matching figures for `FC(F)c1cn2c(-c3cccc(N[C@@H]4CCNC4)n3)cnc2cn1` [Compound 18, (R)-6-(6-(difluoromethyl)imidazo[1,2-a]pyrazin-3-yl)-N-(pyrrolidin-3-yl)pyridin-2-amine]: under 0.5 nM, 14 nM, 1 nM and 82 nM.
On to `C[C@H]1CNC[C@@H]1Nc1cccc(-c2cnc3cnc(C(C)(C)O)cn23)n1` [Compound 29, 2-(3-(6-(((3R,4S)-4-methylpyrrolidin-3-yl)amino)pyridin-2-yl)imidazo[1,2-a]pyrazin-6-yl)propan-2-ol], for which the IC50 in experiment [2] came out at 0.6 nM; in experiment [3] (Homo sapiens, MOLM-14, 48 h), 42 nM; in experiment [4] it was 1 nM; in experiment [5] it was 273 nM.
Turning to `Cn1cc(-c2cn3c(-c4cccc(N[C@@H]5CCNC5)n4)cnc3cn2)cn1` [Compound 49, (R)-6-(6-(1-methyl-1H-pyrazol-4-yl)imidazo[1,2-a]pyrazin-3-yl)-N-(pyrrolidin-3-yl)pyridin-2-amine], the IC50 in experiment [2] is under 0.5 nM; in experiment [3] (Homo sapiens, MOLM-14, 48 h), 9 nM; in experiment [4], 1 nM; in experiment [5], 196 nM.
On to `CC(O)(c1cn2c(-c3cccc(N[C@@H]4CCCNC4)n3)cnc2cn1)C(F)(F)F` (stereo partly drawn) [Compound 79, 1,1,1-trifluoro-2-(3-(6-((R)-piperidin-3-ylamino)pyridin-2-yl)imidazo[1,2-a]pyrazin-6-yl)propan-2-ol], for which the IC50 worked out at 237 nM in experiment [1] (Homo sapiens, MOLM-14, 48 h) and 84 nM in experiment [3] (Homo sapiens, MOLM-14, 48 h).
